Measured values: article PMC7760626, “Screening of Human CYP1A2 and CYP3A4 Inhibitors from Seaweed In Silico and In Vitro” (Marine Drugs, 2020)
Values joined by “and” are separate entries in the source; they are usually repeats but may differ in a detail not shown here. Equal entries are not always repeated. Where two headings read alike, the source gives them in different places.

Tests used:
CYP1A1 [1] = test system: CYP1A1; set-up: method as in PMID 31655123; conditions: cited from earlier work
CYP1A2 [2] = target: T1, CYP1A2 (Homo sapiens, UniProt P05177); assay: Vivid CYP1A2 blue screening kit inhibition assay; conditions: 3.125–200 μM; for effect on CYP1A2 activity (in words): in vitro
T1 sequence (P05177 1-516): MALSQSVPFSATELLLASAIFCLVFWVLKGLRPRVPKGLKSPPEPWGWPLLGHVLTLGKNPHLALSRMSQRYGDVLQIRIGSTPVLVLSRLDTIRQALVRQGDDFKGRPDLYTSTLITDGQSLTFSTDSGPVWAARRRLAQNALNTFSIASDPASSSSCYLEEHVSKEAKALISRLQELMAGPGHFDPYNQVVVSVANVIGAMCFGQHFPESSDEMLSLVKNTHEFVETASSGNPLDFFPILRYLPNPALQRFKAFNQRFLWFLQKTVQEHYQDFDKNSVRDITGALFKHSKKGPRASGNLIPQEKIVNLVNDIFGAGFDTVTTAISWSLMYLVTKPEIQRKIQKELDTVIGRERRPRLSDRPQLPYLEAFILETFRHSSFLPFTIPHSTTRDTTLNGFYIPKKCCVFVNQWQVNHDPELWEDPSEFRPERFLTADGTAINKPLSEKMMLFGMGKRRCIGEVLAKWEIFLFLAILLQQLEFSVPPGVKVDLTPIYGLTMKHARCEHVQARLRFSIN
Method: (§1) Human CYP1A2 and CYP3A4 activities were determined using the Vivid™ CYP1A2 blue screening kit and Vivid™ CYP3A4 red screening kit according to the manufacturer’s instructions. For the CYP1A2 and CYP3A4 inhibition assay, different concentrations (3.125–200 μM) of test compounds or inhibitors were mixed with a master pre-mix comprising of CYP450 BACULOSOMES® reagent and regeneration system which contained glucose-6-phosphate and glucose-6-phosphate dehydrogenase. The mixture was incubated at room temperature for 10 min. Following incubation, each CYP enzyme-specific substrate (Vivid EOMCC for CYP1A2 and Vivid BOMR for CYP3A4) and NADP^+ were added to start the reaction. The plate was immediately transferred into the fluorescent plate reader and read in 1 min intervals for 60 min at Ex 415 nm/Em 460 nm (CYP1A2) and Ex 550 nm/Em 590 nm (CYP3A4), respectively. […] The plots were made with Graph-Pad Prism software (Graph-Pad, San Diego, CA, USA).

human recombinant CYP3A4 = human recombinant CYP3A4 (Homo sapiens, UniProt P08684); assay: Vivid CYP3A4 red screening kit inhibition assay
Chain of human recombinant CYP3A4 (P08684 whole entry): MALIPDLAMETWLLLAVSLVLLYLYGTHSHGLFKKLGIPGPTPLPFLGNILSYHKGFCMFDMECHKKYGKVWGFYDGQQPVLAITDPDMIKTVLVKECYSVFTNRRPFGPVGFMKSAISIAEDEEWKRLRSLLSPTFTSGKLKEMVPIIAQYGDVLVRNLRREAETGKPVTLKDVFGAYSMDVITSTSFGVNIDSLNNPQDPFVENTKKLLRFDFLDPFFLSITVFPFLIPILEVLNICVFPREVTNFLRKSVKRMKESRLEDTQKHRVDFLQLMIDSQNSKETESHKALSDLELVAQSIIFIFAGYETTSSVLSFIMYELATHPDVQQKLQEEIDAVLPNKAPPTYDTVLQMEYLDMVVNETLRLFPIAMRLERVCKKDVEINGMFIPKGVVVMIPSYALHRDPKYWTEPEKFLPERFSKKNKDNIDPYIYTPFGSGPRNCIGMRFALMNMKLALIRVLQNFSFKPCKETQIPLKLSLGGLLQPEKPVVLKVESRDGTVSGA
Method: as §1

CYP2D6 = conditions: cited from earlier work
CYP2C19 = conditions: cited from earlier work
CYP1A2 [3] = conditions: cited from earlier work
CYP3A4 [4] = conditions: cited from earlier work
CYP2E1 = conditions: cited from earlier work
CYP1A1 [5] = conditions: read-out: IC50 CYP1A1 enzyme activity; cited from earlier work
CYP1A2 [6] = conditions: read-out: IC50 CYP1A2 enzyme activity; cited from earlier work
CYP3A4 [7] = conditions: read-out: IC50 CYP3A4 enzyme activity; cited from earlier work
[8] = CYP1A2 In Vitro IC50, CYP1A2 BACULOSOMES, substrate Vivid EOMCC, n.i. = no inhibition

SMILES: O=c1c(O)c(-c2ccc(O)cc2O)oc2cc(O)cc(O)c12 [Morin, morin hydrate]
- IC50 (CYP1A1 [1]): 126 µM
- IC50 (CYP1A2 [2]; [8]): 41.8 µM and 41.9 µM

SMILES: COc1ccc([C@@H]2CC(=O)c3c(O)cc(O[C@@H]4O[C@H](CO[C@@H]5O[C@@H](C)[C@H](O)[C@@H](O)[C@H]5O)[C@@H](O)[C@H](O)[C@H]4O)cc3O2)cc1O [Hesperidin, hesperidin]
- effect on CYP3A4 activity (in words) (human recombinant CYP3A4; in vitro, at high concentrations): slightly inhibited
- effect on CYP1A2 activity (in words) (CYP1A2 [2]): did not show any significant effect
- effect on CYP1A2 activity (in words) (CYP1A2 [2]; listed as HSP): no significant inhibitory effect

SMILES: O=c1c(O)c(-c2ccc(O)c(O)c2)oc2cc(O)cc(O)c12 [Quercetin, quercetin]
- inhibitory effect against CYP2D6 (in words) (CYP2D6): strong inhibitory effect
- inhibitory effect against CYP2C19 (in words) (CYP2C19): moderate effect
- effect on CYP1A2 (in words) (CYP1A2 [3]): did not show any significant effect
- inhibitory effect against CYP3A4 (in words) (CYP3A4 [4]): moderate effect
- effect on CYP2E1 (in words) (CYP2E1): did not show any significant effect

SMILES: CC(=O)O[C@H]1CC(C)(C)C(=C=C/C(C)=C/C=C/C(C)=C/C=C/C=C(C)/C=C/C=C(\C)C(=O)C[C@@]23O[C@]2(C)C[C@@H](O)CC3(C)C)[C@](C)(O)C1 [Fucoxanthin, fucoxanthin]
- IC50 (CYP1A1 [5]): 12.5 µM
- IC50 (CYP1A2 [6]): 49 µM
- IC50 (human recombinant CYP3A4; CYP3A4 In Vitro IC50, CYP3A4 BACULOSOMES, substrate Vivid BOMR, 3.125–200 μM, n.i. = no inhibition): 24.4 µM
- IC50 (CYP3A4 [7]): 11 µM
- IC50 (CYP1A2 [2]; [8]): 30.3 µM
- IC50 at 60 min (CYP1A2 [2]; human, recombinant human CYP1A2 (CYP450 BACULOSOMES reagent), probe Vivid EOMCC, CYP1A2 In Vitro IC50, CYP1A2 BACULOSOMES, substrate Vivid EOMCC, n.i. = no inhibition): 30.2 µM
